# From patent US20260071220A1, “CONJUGATE OF NUCLEOTIDE ANALOG-CONTAINING DOUBLE-STRANDED RNAI ANALOG” (BaseCure Therapeutics LLC, priority 2022, published 2026)
# In the oligonucleotide strings, read from the 5' end, every base follows the letter of its sugar. An asterisk marks phosphorothioate; unmarked linkages are phosphodiester. Other units and linkages are bracketed, terminal groups are in braces. A string of capitals states the bases alone. {D01} = GalNAc ligand D01, attached to sense strand by a phosphodiester bond; m = 2'-O-methyl; f = 2'-fluoro
# Key:
# AGT mRNA = test: Compound activity experiment in Huh7 cell line (transfection, AGT mRNA by qPCR); type: cell-based, human; settings: Huh7, RNAiMAX transfection, 24 h
# Procedure: 1. Objective: this study aims to evaluate the inhibitory effect of the conjugate described in this patent on a target gene using a Huh7 cell line. The inhibitory activity of the compound on target gene AGT is evaluated based on the EC50 value of the compound as an index.
# Huh7 cells were provided by Shanghai WuXi AppTec New Drug Development Co., Ltd. Hub7 cells were cultured in MEM medium containing 10% fetal bovine serum and 1% penicillin streptomycin.
# 1) On Day 1, a mixed solution of an RNAiMAX transfection reagent and Opti-MEM was prepared as needed in a ratio of RNAiMAX transfection reagent:Opti-MEM=1.5:48.5, and incubated for 15 min at room temperature;
# 2) For cells in each well, a certain amount of diluted compound was taken and added into an equal amount of RNAiMAX Optim-MEM medium to be mixed well, and then incubated for 15 min;
# 3) Huh7 cells were taken and washed with DPBS, digested with trypsin, and the density of the cells was adjusted to an appropriate density;
# 4) The cells were seeded into a 96-well plate at a density of 2,0000 cells/well while adding a mixture of 20 μL Opti-MEM RNAiMax and the compound into the cell culture plate, and the volume of the final medium for each well was 120 μL.
# 5) The cells were incubated for 24 h in an incubator under the conditions of 5% CO2 and 37° C. […]
# The cDNA of the target gene was detected by qPCR. qPCR was carried out in a 384-well plate using GAPDH as an internal reference gene. […]
# This method requires the introduction of the internal reference gene GAPDH, as the internal reference gene is expressed in all the cells and its product is necessary for maintaining cell survival; and the expression level or copy number of the genome in cells remains constant and is less affected by environmental factors. After qRT-PCR, the CT value of the internal reference will also be recorded, called Ct (GAPDH), and the CT value of the sample is called Ct (sample).
# Transcriptome = test: In vitro RNA sequencing study (off target risk); type: cell-based
# Excerpt: Transcriptome refers to a sum of all RNA transcripted from specific tissues or cells at a certain time or state, mainly including mRNA and non-encoding RNA. Transcriptome sequencing is to study all mRNA transcripted from specific tissues or cells during a certain period based on an Illumina sequencing platform, is a basis for gene functions and structure study, and plays an important role in understanding the development of organisms and the occurrence of diseases. With the development of gene sequencing technologies and reduction in sequencing cost, RNA-seq, with its advantages of high throughput, high sensitivity and wide application range, has become a main method for transcriptome study. The RNA-seq technical process mainly includes two parts: library construction and sequencing, and biological information analysis.
# RNA was extracted from tissues or cells using a standard extraction method, and subsequently serious quality control was performed on RNA samples. The quality control method was mainly achieved by Agilent 2100 bioanalyzer to precisely detect the integrity of RNA.
# mRNA was obtained mainly by the following two methods: one was to utilize the structural feature that most mRNA in eukaryotes had polyA tails to enrich mRNA with polyA tails using Oligo (dT) magnetic beads; and the other one was to remove ribosomal RNA from total RNA to obtain mRNA. Subsequently, the obtained mRNA was randomly fragmented using divalent cations in NEB Fragmentation Buffer, and library construction was carried out using either an NEB ordinary library construction method or a strand specific library construction method.
# NEB ordinary library construction: a first strand of a cDNA was synthesized in an M-MuLV reverse transcriptase system by using fragmented mRNA as a template and random oligonucleotides as primers. Subsequently, the RNA strand was digested using RNaseH, and a second strand of the cDNA was synthesized in a DNA polymerase I system using dNTPs as a raw material. The purified double-stranded cDNA was subjected to end repair, A tail addition and sequencing linker linkage. About 250-300 bp cDNAs were screened using AMPure XP beads and subjected to PCR amplification, and the PCR product was purified again using AMPure XP beads to finally obtain a library. A kit for library construction was NEBNext® Ultra™ RNA Library Prep Kit for Illumina®.
# Strand specific library construction: a method for synthesizing the first strand of cDNA was the same as the NEB ordinary library construction method except that when the second strand was synthesized, dTTP in dNTPs was replaced by dUTP, and then end repair, A tail addition, sequencing linker linkage and length screening of cDNA were similarly carried out. Subsequently, the second strand of cDNA containing U was digested using USER enzyme followed by PCR amplification to obtain the library. […] A kit used for the library construction was NEB Next® Ultra™ Directional RNA Library Prep Kit for Illumina®.
# After library construction was completed, preliminary quantification was carried out using Qubit2.0 Fluorometer. The library was diluted to 1.5 ng/uL, and subsequently the insert size of the library was detected using Agilent 2100 bioanalyzer. After the insert size met the expectation, the effective concentration of the library was accurately quantified by QRT-PCR (the effective concentration of the library was higher than 2 nM) to ensure the quality of the library.
# After library inspection was qualified, different libraries were subjected to Illumina sequencing after pooling according to effective concentration and target offline data volume requirements. The basic principle of sequencing was sequencing by synthesis. Four fluorescent labeled dNTPs and DNA polymerases as well as linker primers were added in the sequenced flow cell for amplification. […]
substance,measurement,setting,value
"Conjugate 2: Double-stranded RNAi analog against AGT, D01 GalNAc ligand on sense strand; sense SEQ ID NO: 6, antisense SEQ ID NO: 2 containing Z (sense mA*mU*fCfCmAfCfAfAmUmGmAmGmAfGmUmAmCmA-{D01}; antisense CUCACAUGUACNCUCAUUGUGGAUGACGA; antisense: chemistry not given here; antisense strand modified, includes nucleotide analog Z, further chemistry not fully specified)",Emax (remaining AGT mRNA),AGT mRNA,5%
same,EC50,"AGT mRNA; AGT mRNA, read-out: Absolute EC50",5.92 pM
same,Log (concentration),AGT mRNA; log of the absolute EC50 (matches nM),−2.228
same,Downregulate Average,"Transcriptome; number of downregulated genes, average",658
same,Downregulate N = 1,"Transcriptome; number of downregulated genes, replicate 1",1006
same,Downregulate N = 2,"Transcriptome; number of downregulated genes, replicate 2",309
same,Upregulate Average,"Transcriptome; number of upregulated genes, average",722
same,Upregulate N = 1,"Transcriptome; number of upregulated genes, replicate 1",1033
same,Upregulate N = 2,"Transcriptome; number of upregulated genes, replicate 2",410
same,Total Average,"Transcriptome; total regulated genes, average",1379
same,Total N = 1,"Transcriptome; total regulated genes, replicate 1",2039
same,Total N = 2,"Transcriptome; total regulated genes, replicate 2",719
